Test results from patent US7807684B2, “HIV reverse transcriptase inhibitors” (Merck Sharp & Dohme Corp., priority 2005, dated 2010).

Test: Oral dosing to rats, bioavailability
Assay type: in vivo
Settings: compared to analogous dosing of the compound of Example 36

With `CNCCN(C)C(=O)n1nc(COc2ccc(Cl)c(Oc3cc(Cl)cc(C#N)c3)c2)c2cccnc21.Cl` [Example 59, 2-[[(3-{[4-chloro-3-(3-chloro-5-cyanophenoxy)phenoxy]methyl}-1H-pyrazolo[3,4-b]pyridin-1-yl)carbonyl](methyl)amino]-N-methylethanaminium chloride] the Bioavailability was “substantially higher bioavailability”.
